Test results reported in US20090203692A1, “NOVEL CHEMICAL COMPOUNDS” (SMITHKLINE BEECHAM CORPORATION, priority 2005, published 2009).

Biological target: T1, hYAK3 (Homo sapiens, UniProt O43781)
T1 construct: GST (N); His6 (C); made in house; host or cells: baculovirus expression system in Sf9 cells
T1 sequence (O43781 142-526): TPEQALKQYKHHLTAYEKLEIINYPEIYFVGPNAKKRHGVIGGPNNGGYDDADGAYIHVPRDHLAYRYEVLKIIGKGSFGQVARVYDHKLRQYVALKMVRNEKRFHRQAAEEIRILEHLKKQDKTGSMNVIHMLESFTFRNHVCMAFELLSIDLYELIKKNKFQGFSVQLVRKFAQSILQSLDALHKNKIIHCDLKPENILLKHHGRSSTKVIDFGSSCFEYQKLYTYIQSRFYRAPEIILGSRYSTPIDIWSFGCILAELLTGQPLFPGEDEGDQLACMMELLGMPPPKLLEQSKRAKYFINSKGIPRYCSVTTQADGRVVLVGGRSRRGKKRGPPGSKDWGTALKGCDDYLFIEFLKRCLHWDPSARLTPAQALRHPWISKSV
Experiment: YAK3 Scintillation Proximity Assay using Ser164 of myelin basic protein as the phosphoacceptor (kinase assay of purified hYAK3)
Assay type: biochemical
Settings: purified GST-hYak3-His6 4 nM; 1 μM ATP; 4 μM Ser164 peptide; 2 hours at room temperature; pIC50=-Log10(K)
Experimental: Substrate phosphorylation assays were carried out as follows:
YAK3 Scintillation Proximity Assays Using Ser164 of Myelin Basic Protein as the Phosphoacceptor
The source of Ser164 substrate peptide The biotinylated Ser164, S164A peptide(LGGRDSRAGS*PMARRKK-ahx-Biotin-Amide), sequence derived from the C-terminus of bovine myelin basic protein (MBP) with […] substituted as Ala 162, was purchased from California Peptide Research Inc. (Napa, Calif.), and its purity was determined by HPLC. Phosphorylation occurs at position 164 (marked S* above). The calculated molecular mass of the peptide is 2166 dalton. Solid sample was dissolved at 10 mM in DMSO, aliquoted, and stored at −20 C until use. […]
Kinase assay of purified hYAK3: Assays were performed in 96 well (Costar, Catalog No. 3789) or 384 well plates (Costar, Catalog No. 3705). […] Compounds, titrated in DMSO, were evaluated at concentrations ranging from 50 μM to 0.2 nM. […]
The data for compound dose responses were plotted as % Inhibition, calculated with the data reduction formula 100*(1−[(U1−C2)/(C1−C2)]), versus concentration of compound, where U is the unknown value, C1 is the average control value obtained for DMSO, and C2 is the average control value obtained for 0.05M EDTA. […] The results for each compound were recorded as pIC50 calculated as follows: pIC50=−Log 10(K).

O=C1N=C(Nc2cccnc2Cl)S/C1=C\c1ccc2ncccc2c1 [Example 1, (5Z)-2-[(2-Chloro-3-pyridinyl)amino]-5-(6-quinolinylmethylidene)-1,3-thiazol-4(5H)-one]
IC50: 1.58 nM
